Source: PubChem BioAssay AID2060505 (Molecular Pharmacology Branch, DTP, NCI, 2025)

System: 633275-114-R-J1-PDC complex spheroids, viability
Experiment: Anticancer human tumor 633275-114-R-J1-PDC patient-derived endometrial adenocarcinoma cell line growth inhibition [GQUAD]
Conditions: for IC50: curve of first compound; for viability, T/C: stronger effect = lower value
Outline: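 Multi-cell-type spheroids of tumor cells with HUVEC and mesenchymal stem cells, treated with drug combinations. Concentrations descend in half-log steps from near clinical Cmax, or from 10 microM where Cmax is unknown; viability read-out.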

[1] = second compound 0.0316 µM, first compound 0.0316 µM
[2] = second compound 0.0316 µM, first compound 0.1 µM
[3] = second compound 0.0316 µM, first compound 0.316 µM
[4] = second compound 0.0316 µM, first compound 1 µM
[5] = second compound 0.0316 µM, first compound 3.16 µM
[6] = second compound 0.0316 µM, first compound 10 µM
[7] = second compound 0.1 µM, first compound 0.0316 µM
[8] = second compound 0.1 µM, first compound 0.1 µM
[9] = second compound 0.1 µM, first compound 0.316 µM
[10] = second compound 0.1 µM, first compound 1 µM
[11] = second compound 0.1 µM, first compound 3.16 µM
[12] = second compound 0.1 µM, first compound 10 µM
[13] = second compound 0.316 µM, first compound 0.0316 µM
[14] = second compound 0.316 µM, first compound 0.1 µM
[15] = second compound 0.316 µM, first compound 0.316 µM
[16] = second compound 0.316 µM, first compound 1 µM
[17] = second compound 0.316 µM, first compound 3.16 µM
[18] = second compound 0.316 µM, first compound 10 µM
[19] = second compound 1 µM, first compound 0.0316 µM
[20] = second compound 1 µM, first compound 0.1 µM
[21] = second compound 1 µM, first compound 0.316 µM
[22] = second compound 1 µM, first compound 1 µM
[23] = second compound 1 µM, first compound 3.16 µM
[24] = second compound 1 µM, first compound 10 µM
[25] = second compound 3.16 µM, first compound 0.0316 µM
[26] = second compound 3.16 µM, first compound 0.1 µM
[27] = second compound 3.16 µM, first compound 0.316 µM
[28] = second compound 3.16 µM, first compound 1 µM
[29] = second compound 3.16 µM, first compound 3.16 µM
[30] = second compound 3.16 µM, first compound 10 µM
[31] = second compound 10 µM, first compound 0.0316 µM
[32] = second compound 10 µM, first compound 0.1 µM
[33] = second compound 10 µM, first compound 0.316 µM
[34] = second compound 10 µM, first compound 1 µM
[35] = second compound 10 µM, first compound 3.16 µM
[36] = second compound 10 µM, first compound 10 µM
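Further: spheroids exposed to the agents for seven days.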
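Wherever viability, T/C is given: percent of DMSO vehicle control viability which is 100%.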

With `C=CCn1c(=O)c2cnc(Nc3ccc(N4CCN(C)CC4)cc3)nc2n1-c1cccc(C(C)(C)O)n1` + Cc1cnc(CNC(=O)c2c(=O)c3ccc(N4CCCN(C)CC4)nc3n3c2sc2ccccc23)cn1 the IC50 (second compound 0.0316 µM) was 129 nM, the IC50 (second compound 0.1 µM) was under 31.6 nM and the IC50 (second compound 0.316 µM) was under 31.6 nM. The IC50 (second compound 1 µM) was under 31.6 nM, the IC50 (second compound 3.16 µM) was under 31.6 nM and the IC50 (second compound 10 µM) was under 31.6 nM. For the same compound, the viability, T/C [1] was 55.6%, the viability, T/C [2] was 56% and the viability, T/C [3] was 33.9%. The viability, T/C [4] was 23.6%, the viability, T/C [5] was 19.9% and the viability, T/C [6] was 16.5%. For the same compound, the viability, T/C [7] was 48.1%, the viability, T/C [8] was 40% and the viability, T/C [9] was 28.9%. It also gave a viability, T/C [10] of 22.7%, a viability, T/C [11] of 21.2% and a viability, T/C [12] of 15.2%. For the same compound, the viability, T/C [13] was 43.8%, the viability, T/C [14] was 39.8% and the viability, T/C [15] was 24.6%. For the same compound, the viability, T/C [16] was 21.1%, the viability, T/C [17] was 20.7% and the viability, T/C [18] was 16.5%. It also gave a viability, T/C [19] of 34.5%, a viability, T/C [20] of 32.2% and a viability, T/C [21] of 22.4%. The viability, T/C [22] was 19.9%, the viability, T/C [23] was 20.7% and the viability, T/C [24] was 17.3%. It also gave a viability, T/C [25] of 31.4%, a viability, T/C [26] of 26.6% and a viability, T/C [27] of 18.5%. It also gave a viability, T/C [28] of 22.5%, a viability, T/C [29] of 25% and a viability, T/C [30] of 18.3%. For the same compound, the viability, T/C [31] was 26.8%, the viability, T/C [32] was 20.5% and the viability, T/C [33] was 16.8%. For the same compound, the viability, T/C [34] was 17.8%, the viability, T/C [35] was 22.4% and the viability, T/C [36] was 19.5%.

Work on `CC(C)(O)C1CCC(Nc2ccc3ncc(-c4cccc(C(F)(F)F)c4)n3n2)CC1` (stereo not drawn) + Cc1cnc(CNC(=O)c2c(=O)c3ccc(N4CCCN(C)CC4)nc3n3c2sc2ccccc23)cn1 yielded an IC50 (second compound 0.0316 µM) of 886 nM, an IC50 (second compound 0.1 µM) of under 31.6 nM and an IC50 (second compound 0.316 µM) of under 31.6 nM. For the same compound, the IC50 (second compound 1 µM) was under 31.6 nM, the IC50 (second compound 3.16 µM) was under 31.6 nM and the IC50 (second compound 10 µM) was under 31.6 nM. It also gave a viability, T/C [1] of 64.2%, a viability, T/C [2] of 66.3% and a viability, T/C [3] of 64.7%. The viability, T/C [4] was 48.2%, the viability, T/C [5] was 22.2% and the viability, T/C [6] was 32.5%. It also gave a viability, T/C [7] of 52.1%, a viability, T/C [8] of 52.7% and a viability, T/C [9] of 44.5%. It also gave a viability, T/C [10] of 39.9%, a viability, T/C [11] of 19.4% and a viability, T/C [12] of 26.1%. The viability, T/C [13] was 46.1%, the viability, T/C [14] was 42.3% and the viability, T/C [15] was 45.5%. It also gave a viability, T/C [16] of 35.8%, a viability, T/C [17] of 18.6% and a viability, T/C [18] of 22.3%. For the same compound, the viability, T/C [19] was 43.8%, the viability, T/C [20] was 43.5% and the viability, T/C [21] was 42.6%. For the same compound, the viability, T/C [22] was 34.6%, the viability, T/C [23] was 16.5% and the viability, T/C [24] was 19.8%. The viability, T/C [25] was 38.3%, the viability, T/C [26] was 40.4% and the viability, T/C [27] was 39.7%. It also gave a viability, T/C [28] of 28%, a viability, T/C [29] of 0.11% and a viability, T/C [30] of 7.92%. The viability, T/C [31] was 30.7%, the viability, T/C [32] was 33.9% and the viability, T/C [33] was 30.4%. For the same compound, the viability, T/C [34] was 15.6%, the viability, T/C [35] was 0.2% and the viability, T/C [36] was 0.19%.

`COc1ncnc(C2CC2)c1-c1ncc2cnn(Cc3ccc(-c4nc(C(F)(F)F)cn4C(C)C)cc3)c2n1` + Cc1cnc(CNC(=O)c2c(=O)c3ccc(N4CCCN(C)CC4)nc3n3c2sc2ccccc23)cn1 gave an IC50 (second compound 0.0316 µM) of over 10000 nM, an IC50 (second compound 0.1 µM) of under 31.6 nM and an IC50 (second compound 0.316 µM) of under 31.6 nM. The IC50 (second compound 1 µM) was under 31.6 nM, the IC50 (second compound 3.16 µM) was under 31.6 nM and the IC50 (second compound 10 µM) was under 31.6 nM. The viability, T/C [1] was 53.1%, the viability, T/C [2] was 54.6% and the viability, T/C [3] was 59.3%. For the same compound, the viability, T/C [4] was 56%, the viability, T/C [5] was 56.5% and the viability, T/C [6] was 58.2%. The viability, T/C [7] was 45.3%, the viability, T/C [8] was 45.5% and the viability, T/C [9] was 45.9%. For the same compound, the viability, T/C [10] was 48.5%, the viability, T/C [11] was 49% and the viability, T/C [12] was 50%. It also gave a viability, T/C [13] of 42.7%, a viability, T/C [14] of 43.9% and a viability, T/C [15] of 42.1%. The viability, T/C [16] was 38.8%, the viability, T/C [17] was 48.7% and the viability, T/C [18] was 42.5%. The viability, T/C [19] was 39.9%, the viability, T/C [20] was 39.7% and the viability, T/C [21] was 37.1%. It also gave a viability, T/C [22] of 36.9%, a viability, T/C [23] of 40.5% and a viability, T/C [24] of 38.7%. The viability, T/C [25] was 32%, the viability, T/C [26] was 32.1% and the viability, T/C [27] was 35.5%. The viability, T/C [28] was 33.4%, the viability, T/C [29] was 36.6% and the viability, T/C [30] was 34.1%. The viability, T/C [31] was 29.2%, the viability, T/C [32] was 28.8% and the viability, T/C [33] was 30.5%. For the same compound, the viability, T/C [34] was 27.5%, the viability, T/C [35] was 31.9% and the viability, T/C [36] was 29.3%.

`O=C(NO)c1cnc(N2CCN(S(=O)(=O)c3ccc4ccccc4c3)CC2)nc1` + Cc1cnc(CNC(=O)c2c(=O)c3ccc(N4CCCN(C)CC4)nc3n3c2sc2ccccc23)cn1 showed an IC50 (second compound 0.0316 µM) of 109 nM, an IC50 (second compound 0.1 µM) of under 31.6 nM and an IC50 (second compound 0.316 µM) of under 31.6 nM. It also gave an IC50 (second compound 1 µM) of under 31.6 nM, an IC50 (second compound 3.16 µM) of under 31.6 nM and an IC50 (second compound 10 µM) of under 31.6 nM. For the same compound, the viability, T/C [1] was 54%, the viability, T/C [2] was 53.5% and the viability, T/C [3] was 33.2%. The viability, T/C [4] was 15.1%, the viability, T/C [5] was 12.3% and the viability, T/C [6] was 4.21%. It also gave a viability, T/C [7] of 48.3%, a viability, T/C [8] of 42.8% and a viability, T/C [9] of 31%. For the same compound, the viability, T/C [10] was 16.3%, the viability, T/C [11] was 10.7% and the viability, T/C [12] was 4.01%. It also gave a viability, T/C [13] of 40.8%, a viability, T/C [14] of 42.9% and a viability, T/C [15] of 23.7%. It also gave a viability, T/C [16] of 14.1%, a viability, T/C [17] of 7.68% and a viability, T/C [18] of 1.96%. For the same compound, the viability, T/C [19] was 40.4%, the viability, T/C [20] was 36.3% and the viability, T/C [21] was 22.4%. The viability, T/C [22] was 7.98%, the viability, T/C [23] was 3.91% and the viability, T/C [24] was 0.11%. The viability, T/C [25] was 37.8%, the viability, T/C [26] was 34.1% and the viability, T/C [27] was 20.5%. The viability, T/C [28] was 0.25%, the viability, T/C [29] was 0.07% and the viability, T/C [30] was 0.11%. For the same compound, the viability, T/C [31] was 31.9%, the viability, T/C [32] was 27.6% and the viability, T/C [33] was 21.5%. The viability, T/C [34] was 0.17%, the viability, T/C [35] was 0.14% and the viability, T/C [36] was 0.18%.
